Assay results as given in patent US20090238852A1, “METHODS FOR CONTROLLING INTRACELLULAR CALCIUM LEVELS ASSOCIATED WITH AN ISCHEMIC EVENT” (University of Utah Research Foundation, priority 2008, published 2009).

Key:
[1] = tested on: rabbit ventricular myocytes; assay: Intracellular calcium [Ca^++]i in ventricular myocytes during paced metabolic ischemia (PMI), Fluo-3 flow cytometry; type: cell-based
Source text: Consequently, it prevents intracellular sodium overload and subsequent reverse mode operation of the sodium-calcium exchanger. The effect of 2-O, 3-O desulfated heparin on accumulation of intracellular Ca^++ during ischemia was studied in an adult rabbit ventricular myocyte model previously reported (Boston D R, et al. J Pharmacol Exp Ther 285:716-723, 1998; Li F, et al. J Mol Cell Cardiol 33:2145-2155, 2001). Isolated cardiomyocytes have been validated as reliable models of ischemia (Diaz, R J, Wilson G J. Cardiovasc Res 70:286-296, 2006).
To produce the model, hearts are removed from albino rabbits (2-3 kg) anesthetized with sodium pentobarbital (65 mg/kg IV). The heart was immediately attached to an aorta cannula. Continuous perfusion of the coronary arteries at 37° C. by a pump (Masterflex, Cole-Parmer Instrument Co., Chicago, Ill.) was initiated at a perfusion pressure of 60 mm Hg. The heart was first perfused with nominally Ca^++-free modified Krebs-Ringer bicarbonate buffered solution (MKRBB, pH 7.40, containing in mmol/L: NaCl 126, KCl 4.4, […], MgCl2 1.0, HEPES 24, probenecid 0.5 and glucose 5) for 10 min, immediately followed by 15-25 min of recirculating perfusion with the same solutions containing 0.3 mg/ml collagenase (Type 2, Worthington Biochemical, Freehold, N.J.), 0.4 mg/mL hyaluronidase (Type-S, Sigma-Aldrich, St. Louis, Mo.) and 50 μmol/L CaCl2. The heart was then detached from the cannula, and the left ventricle was minced and transferred to a 50 mL conical tube with the same solution containing 0.24 mg/mL collagenase, 0.02 mg/mL trypsin and 50 μmol/L Ca^++ for a second digestion. The minced tissue was continuously agitated by gassing the solution with 5% CO2 and 95% O2 to help release isolated myocytes. The resulting supernatant was transferred to another conical tube with the same volume of the same solution containing 0.03 mg/mL of trypsin inhibitor (Sigma-Aldrich). The cell suspension was centrifuged at 5×g for 5 minutes. The supernatant was discarded and cells were resuspended in solution with a higher Ca^++ concentration (200 μmol/L) and incubated in a CO2 incubator (5% CO2, 28° C.) to settle down cells by gravity for 10 min. The same procedure was repeated twice to bring up the Ca^++ concentration slowly (500, then 1000 μmol/L). Calcium step-up solutions were made from MKRBB with 2% albumin, 50 μmol/L CaCl2 mixed with the appropriate amount of minimum essential medium (MEM, Gibco Laboratories, Grand Island, N.Y.). At the end of isolation, cells were filtered with a […] to avoid cell clumping during flow cytometry studies. The yield of rod-shaped viable myocytes averaged 50%. Cells were used for experiments within 4 hours after dissociation.
In these studies, intracellular calcium concentration [Ca^++]i was measured by flow cytometry. Measurement of isolated mouse and rabbit ventricular myocyte [Ca^2+]i and [Na^+]i by flow cytometry has been described (Zhang et al., J. Cardiovasc. Pharmacol. 51: 443-449 (2008); Li et al., J. Mol. Cell. Cardiol. 33: 2145-2155 (2001)). [Ca^++]i was measured with the Ca^++ sensitive fluorescent probe, Fluo 3-AM (Molecular Probes, Eugene, Oreg.), using a FACScan (Becton-Dickinson, MA). The cells were exposed to 4 μmol/L Fluo-3 AM for 30 min at 37° C. The cells were then separated into aliquots. After 40 min of wash, the cells were exposed to paced metabolic ischemia (MI) for 45 min at 37° C. Metabolic ischemia was accomplished by incubating cells in a glucose-free MKRBB solution (pH 7.40) containing 2 mmol/L sodium cyanide (NaCN) to impair mitochondrial and glycolytic generation of ATP. To reproduce the situation in the beating ischemic heart, during the period of metabolic ischemia, myocytes were placed in a 5-well chamber with equal volumes of myocyte suspensions from the same heart dissociation placed in each well. The chamber was water bathed to maintain temperature at 37° C. and bubbled with 5% CO2 in air to keep myocytes in suspension. […]

[2] = in vivo
Procedure: A study was performed in eight (8) healthy adult male and female subjects to assess the effects of a bolus dose and 72 hour infusion of 2-O, 3-O desulfated heparin. The study was a Phase I study with a three day treatment period. Doses were adjusted to maintain an aPTT level of 40-45 seconds. Subjects were between the ages of 18 and 60, were not pregnant, and were normal in body weight. They all had normal coagulation function and hemoglobin values at baseline.
Subjects received an initial bolus of 8 mg/kg of ODSH over 15 minutes, followed by 72 hours continuous infusion beginning at 0.58 mg/kg/hr. For each subject ODSH as a 50 mg/ml formulation was diluted with normal saline and administered as a bolus infused over 15 minutes containing the calculated amount of ODSH the subject was to receive, followed by infusion of ODSH diluted in saline. The infusion dose was adjusted to maintain an aPTT of 40-45 seconds. Immediately before infusion and after the start of each infusion, blood was drawn at periodic times (over a total 72 hour period) to monitor the effect of infusion on the following laboratory studies: activated partial thromboplastin time (aPTT), prothrombin time (PT), activated clotting time (ACT), and ODSH plasma level. Serum chemistries and a complete blood count were checked immediately before infusion and again periodically for up to 240 hours later. Using values for aPTT and ODSH levels, pharmacokinetic parameters were calculated by noncompartmental methods using a commercial software program (PhAST 2.3-001). The following pharmacokinetic parameters were calculated as above: Cmax; Kel; tmax; AUC O-t; AUCinf, t1/2; CL; and Vdss.

[3] = tested on: NCX; assay: NCX current (INCX) voltage clamp in intact isolated ventricular myocytes; type: cell-based, rabbit; conditions: ODSH 100 μg/ml; approximately −60 mV to +50 mV; n = 5; FIG. 7
Source text: The direct effects of ODSH on NCX were further measured by means of voltage clamp studies in intact isolated rabbit ventricular myocytes. […] This finding was initially surprising but is consistent with a previous report that heparin and heparan sulfate disaccharides can stimulate Ca^2+ extrusion by NCX in smooth muscle cell lines (Shinjo et al, 2002). […] We therefore studied the effects of ODSH on Na^+ loading.

**Q.** What does the source list for 2-O, 3-O desulfated heparin [ODSH]?
**A.** effect on myocyte [Ca^2+]i during simulated ischemia ([1]; 45 min P-MI, ODSH 1, 10, 100 μg/mL, FIG. 3): dose-dependent reduction of [Ca^2+]I; further reduction in [Ca^2+]i in the presence of KBR ([1]; ODSH 100 μg/mL with KBR 10 μmol/L, 45 min simulated ischemia, FIG. 4): no significant further reduction in [Ca^2+]i; additional effect on Ca^2+ loading during P-MI in the presence of ranolazine ([1]; ODSH 100 μg/ml with ranolazine 10 μM, FIG. 8): no additional effect on Ca^2+ loading; [Ca^++]i ([1]; PMI 45 min + ODSH 1 μg/mL, n = 7, PMI alone 1133.6 ± 78.4, Hepes 241.9 ± 23.0): 1013.8 ± 69.2 nM; [Ca^++]i ([1]; PMI 45 min + ODSH 10 μg/mL, n = 7, PMI alone 1133.6 ± 78.4): 739.0 ± 63.8 nM; [Ca^++]i ([1]; PMI 45 min + ODSH 100 μg/mL, n = 7, PMI alone 1133.6 ± 78.4): 684.3 ± 66.9 nM; [Ca^++]i ([1]; Table 6: PMI + ODSH 100 μg/mL, n = 7, PMI alone 985.5 ± 42.7, Hepes 269.6 ± 8.3): 688.6 ± 33.4 nM; effect on [Ca^2+]i during P-MI ([1]; each alone: ODSH 100 μg/ml, ranolazine 10 μM, FIG. 8, n = 7): reduced [Ca^2+]i to a similar degree; Platelet count, Day After Infusion [2]: 261 ± 37 thousands/μL blood; Platelet count, Day Before Infusion [2]: 261 ± 40 thousands/μL blood; Platelet count, Infusion Day 2 [2]: 258 ± 39 thousands/μL blood; Platelet count, Infusion Day 3 [2]: 272 ± 42 thousands/μL blood; ecchymosis [2]: Mild ecchymosis was reported in one subject; transient elevations in serum ALT and AST [2]: observed in seven subjects; effect on NCX current (INCX) [3]: significant stimulation of exchange
